One series relates to gp120. The settings on record: ns = not significant; >100 = ED50 not determined. Here is the method: Binding assays. Cells (either Jurkat T-cells or THP-1 cells) were grown in RPMI 1640 medium supplemented with 10% fetal calf serum, 2 mM glutamine, 20 µM β-mercaptoethanol, 100 U/ml penicillin and 100 µg/ml streptomycin and maintained between 2 × 10^5 and 1 × 10^6 cells/ml. Prior to performing a binding assay, cells were spun out (100 × g; 4 minutes) and washed 3 times in ice-cold PBS. A volume of cell suspension in PBS containing 10^6 cells (for Jurkat cells) or 4 × 10^5 cells (for THP-1 cells) was pipetted into each well of a V-bottom 96-well plate (Gibco BRL) and spun out (100 x g; 4 minutes). Triplicate wells were then resuspended in 100 µl binding medium (PBS pH 7.2 containing 0.1% fatty acid-free bovine serum albumin (BSA)) containing labeled peptide in the presence or absence of various concentrations of unlabeled peptide. The plate was then incubated on ice for 90 minutes. Cells were washed 3 times with 380 µl of ice-cold PBS, spinning out the cells each time (100 × g; 4 minutes), and resuspended in 100 µl binding medium containing streptavidin-peroxidase (Amersham International) at 1:1000 dilution. Cells were incubated for a further 15 minutes on ice to allow labeling of any bound biotinylated peptide, then washed 4 times as above. Cells were then incubated with 200 µl TMB substrate (K-Blue, Bionostics) for 20 minutes at room temperature, and the reaction stopped by addition of 50 µl 2 M HCl. The plate was spun (3,000 × g; 3 minutes) and 200 µl of the colored product was transferred to an empty 96-well ELISA plate and the absorbance at 450 nm determined. For each assay, the absorbance of a blank reaction (no peptide added) was subtracted from all readings before further analysis.
Binding experiments with labeled peptide 2 were performed with 10 nM labeled peptide in each reaction.

The subject of series [1] is MCP-1 induced THP-1 migration. The series is described as follows: THP-1 trans-well migration assay, MCP-1 as chemoattractant. Format: cell-based, human. Particulars: for ED50 (µM) versus MCP-1: inhibition of THP-1 migration, n.s./ns = not statistically significant. The method, then: (§1) To determine whether an agent inhibits a chemokine-induced activity, such as macrophage recruitment, varying amounts of the agent are mixed with cells in the presence of a known chemoattractant. For example, a range of known concentrations of an agent, e.g., a chemokine peptide, is incubated with a defined number (e.g., 10^4 - […]) of human THP-1 monocyte cells in individual wells of the top compartment of a trans-well plate. Chemokine (such as MCP-1, MIP1α, IL8 or SDF-1α), at a concentration known to cause significant migration of THP-1 cells in the trans-well migration assay, is placed in the lower compartment (Figure 1). Cells are then incubated at 37°C for a period sufficient to allow migration, e.g., 4 hours. After incubation, the cells are gently removed from the top of the filter with a pipette, 20 µl of 20 mM EDTA in simple PBS is added into each top well, and incubated for 20 minutes at 4°C. The filter is carefully flushed with media using a gentle flow, and removed. A standard curve consisting of a two-fold dilution series of THP-1 cells (in 29 µl) is prepared to accurately quantify the number of cells that have migrated. Migrated cells are stained with 3 µl of MTT stock dye solution which is added directly into each well (5 mg/ml in RPMI-1640 without phenol red, Sigma Chemical Co.) and incubated at 37°C for 4 hours. The media is carefully aspirated from each well, and the converted dye is solubilized by 20 µl of DMSO. Absorbance of converted dye is measured at a wavelength of 595 nm using an ELISA plate reader. The number of migrated cells in each well is then determined by interpolation of the standard curve (see also Imai et al.,J. Biol. Chem., 272, 15036 (1997)).
Any method suitable for counting cells can be used, for example, counting with a hemocytometer, incubation of the cells with MTT (see above), or FACS analysis. A negative control assay is also performed, using TGF-β or another non-chemokine chemoattractant (e.g., IL1β or TNFα). To assess whether the agent is cytotoxic, the same concentrations of agent are incubated with THP-1 cells. Agents which 1) are not cytotoxic at levels which inhibit migration, 2) are ineffective at inhibiting the negative control-induced migration, and 3) reduce or inhibit chemokine-induced THP-1 migration, are agents which fall within the scope of the invention.
For this assay, THP-1 cells were maintained at a density of 4 × 10^5 cells per ml in RPMI-1640 supplemented with 10% fetal calf serum + 20 µM 2-mercaptoethanol. Chemotaxis was induced in a 96-well disposable chemotaxis chamber fitted with a 5 µM polycarbonate filter (PVP free, ChemoTX, Neuroprobe Inc., Cabin John). […] The framed filter was aligned with the holes in the corner of the filter frame and placed over the wells.
(§2) Five × 10^4 THP-1 cells in 25 µl of RPMI-1640 were added to the upper compartment. Peptides were dissolved in Milli Q water and then serially diluted in culture medium. In most cases, the serially diluted peptides were added to the upper compartment of the chemotaxis chamber. The chamber was incubated at 37°C in a humidified atmosphere of 5% CO2 for 4 hours.
After incubation, the cells were gently removed from the top of the filter with a pipette, 20 µl of 20 mM EDTA in PBS was added into each top well, and the mixture was incubated for 20 minutes at 4°C. The filter was then carefully flushed with media using a gentle flow, and removed. A standard curve was prepared to accurately quantify the number of THP-1 cells that had migrated. The curve was based on a two-fold dilution series of THP-1 cells (top standard 100,000 cells in 29 µl). Cells which had migrated, and in separate wells, the cells in the standards, were stained with 3 µl of MTT stock solution which was added directly into each well (5 mg/ml in RPMI 1640 without phenol red, Sigma Chemical Co.) and incubated at 37°C for 4 hours. The media was carefully aspirated from each well, and the converted dye was solubilized by 20 µl of DMSO. […]

Series [2] concerns SDF-1α induced THP-1 migration. The series is described as follows: THP-1 trans-well migration assay, SDF-1α as chemoattractant. The settings on record: inhibition of THP-1 migration; n.s./ns = not statistically significant. Format: cell-based, human. The method, then: as §1
(§3) For this assay, THP-1 cells were maintained at a density of 4 × 10^5 cells per ml in RPMI-1640 supplemented with 10% fetal calf serum + 20 µM 2-mercaptoethanol. Chemotaxis was induced in a 96-well disposable chemotaxis chamber fitted with a 5 µM polycarbonate filter (PVP free, ChemoTX, Neuroprobe Inc., Cabin John). Twenty-nine µl of chemoattractant (recombinant human chemokine; 50 ng/ml, i.e., 5.9 nM) or control (100 ng/ml TGFβ) was added to the lower compartment of each well. The framed filter was aligned with the holes in the corner of the filter frame and placed over the wells.
as §2
(§4) After incubation, the cells were gently removed from the top of the filter with a pipette, 20 µl of 20 mM EDTA in PBS was added into each top well, and the mixture was incubated for 20 minutes at 4°C. The filter was then carefully flushed with media using a gentle flow, and removed. A standard curve was prepared to accurately quantify the number of THP-1 cells that had migrated. The curve was based on a two-fold dilution series of THP-1 cells (top standard 100,000 cells in 29 µl). Cells which had migrated, and in separate wells, the cells in the standards, were stained with 3 µl of MTT stock solution which was added directly into each well (5 mg/ml in RPMI 1640 without phenol red, Sigma Chemical Co.) and incubated at 37°C for 4 hours. The media was carefully aspirated from each well, and the converted dye was solubilized by 20 µl of DMSO. Absorbance of converted dye was measured at a wavelength of 595 nm using an ELISA plate reader. The number of cells that had migrated in each well was determined by interpolation of the standard curve.
(§5) To investigate the receptor specificity of peptide 3 inhibition, the ED50 was determined for peptide 3(1-12)[MCP-1] (SEQ ID NO:1) inhibition of THP-1 migration induced by chemokines which signal through different receptors than MCP-1 receptors. […]

Series [3] deals with MIP1α induced THP-1 migration. The series is described as follows: THP-1 trans-well migration assay, MIP1α as chemoattractant. Format: cell-based, human. Particulars: inhibition of THP-1 migration; n.s./ns = not statistically significant. Here is the method: as §1, §3, §2, §4, §5
Another series deals with HIV. The class given is cell-based. Particulars: ns = not significant.
A short description of series [4]: Pharmacokinetics of radiolabeled D-ala peptide after IV or SQ bolus. Format: in vivo, mice. Here is the method:
When ^3H-D-ala peptide 3(1-12)[MCP-1] (^3H-D-ala was attached to Asp) was given as an intravenous (IV) or subcutaneous (SQ) bolus to mice, peak serum concentrations were reached within 1 hour. This radiolabeled peptide was rapidly excreted (approximately 4 hours), primarily via the kidney. […] Direct comparison of ^3H-D-ala peptide 3(1-12)[MCP-1] (no DARC binding and rapidly cleared) and CRD-L-Leu4Ile11Cys13peptide 3(3-12)[MCP-1]

The test system of series [5] is recombinant human chemokine receptors. The series is described as follows: Binding of biotin-labeled peptide to parental and chemokine receptor expressing HOS and CHO lines (125I-streptavidin). Particulars: labeled peptide at 10 µM. The text has this:
HOS parental cells and CCR1-5 and CXCR4 transformants were obtained from the AIDS Reagent Program and were maintained as described on the supplier data sheet. Selection for the chemokine receptor-expressing plasmid was maintained throughout culture. CHO parental cells and CXCR1 and CXCR2 transformants were obtained form Dr. J. Navarro (Southwestern University, TX, USA) and maintained as described by the supplier under constant selection for expression of the chemokine receptor. All cells were split at about a 1:10 dilution approximately every 4 days, releasing the cells with EDTA solution and reseeding at known density. […]
The binding of labeled peptide 2 and labeled peptide 3 to the parental HOS, parental CHO and 8 chemokine receptor expressing lines was compared. […] The amount of streptavidin molecules added was calculated in each case to be approximately 50-fold in excess over the number of chemokine receptor sites. […]
To determine whether this apparent binding of peptide 2 was cell dependent, or whether it was binding to the plastic (or the some component of the fetal calf serum used during the cell culture), the following experiment was conducted. Three plates were evaluated: One had HOS parental cells, another had CCR5 over-expressors and the third had no cells but was incubated with the FCS-containing culture medium. […]

The values below come from patent EP2386565A2, “Compounds and methods to inhibit or augment an inflammatory response” (Cambridge Enterprise Ltd., priority 1999, dated 2000).

Non-standard residues stand in square brackets, D forms with d. Residues, ends and D or L forms follow the SMILES beside them. No end group written: not given here. *: point of attachment. Biotin = O=C1N[C@H]2[C@H](CS[C@H]2CCCCC(=O)*)N1

Turning to `CC[C@@H](C)[C@@H](NC(=O)[C@H](NC(=O)[C@@H](CO)NC(=O)[C@@H](CO)NC(=O)[C@@H](CCCCN)NC(=O)[C@@H](CS)NC(=O)[C@H]1CCCN1C(=O)[C@@H](CCCCN)NC(=O)[C@@H](CCC(=O)O)NC(=O)[C@@H](C)NC(=O)[C@H](N)C(C)C)[C@H](C)O)C(=O)N[C@H](CCCNC(=N)N)C(=O)N[C@H](CCCNC(=N)N)C(=O)N[C@H](Cc1ccc(O)cc1)C(=O)N[C@H](CO)C(=O)O` [LRD peptide 2(1-15)[MCP-1], Vaekpcksstirrys] (H-[dV][dA][dE][dK][dP][dC][dK][dS][dS][dT][dI][dR][dR][dY][dS]-OH; N-terminus and C-terminus assumed), the “gp120 ED-50” value in the series on gp120 is reported as 3 µM. Moreover, the “ED50 (µM) versus MCP-1” value in series [1] is “ns”. Also, in series [2], the “ED50 (µM) versus SDF-1α” value is “ns”. Also, the “ED50 (µM) versus MIP1α” value in series [3] is “ns”.

Consider `CC[C@@H](C)[C@@H](NC(=O)[C@H](NC(=O)[C@@H](CO)NC(=O)[C@@H](CO)NC(=O)[C@@H](CCCCN)NC(=O)[C@@H](CO)NC(=O)[C@H]1CCCN1C(=O)[C@@H](CCCCN)NC(=O)[C@@H](CCC(=O)O)NC(=O)[C@@H](C)NC(=O)[C@H](NC(=O)[C@H](N)CS)C(C)C)[C@H](C)O)C(=O)N[C@H](CCCNC(=N)N)C(=O)N[C@H](CCCNC(=N)N)C(=O)N[C@H](Cc1ccc(O)cc1)C(=O)N[C@H](CO)C(=O)N[C@H](CS)C(=O)O` [cvaekpsksstirrysc] (H-[dC][dV][dA][dE][dK][dP][dS][dK][dS][dS][dT][dI][dR][dR][dY][dS][dC]-OH; N-terminus and C-terminus assumed), for which the “gp120 ED-50 (µM)” value in the series with gp120 is on record as “ns”. Besides, in series [1], the “ED50 (µM) versus MCP-1” value is listed as “ns”. Further, in the series on HIV, the “% virus inhibition” value was “ns”. Besides, the “ED50 (µM) versus SDF-1α” value in series [2] is reported as “ns”. In series [3], the “ED50 (µM) versus MIP1α” value is “ns”.

As to “^3H-D-ala peptide 3(1-12)[MCP-1]: ^3H-D-ala was attached to Asp (EICAD(3H‑D‑Ala)PKQKWVQ; not fully specified)”, in series [4], the “time of excretion, primarily via the kidney” value is on record as “approximately 4 hours” and the “time to peak serum concentrations” value was no more than 1 h.

With “labeled peptide: N-terminal biotin conjugate of the sequence n'-CLDPKQKWIQC-c' (Biotin-CLDPKQKWIQC; cysteine pairing not given here)”, in series [1] (MCP-1 at 100 ng/ml in RPMI 1640 + 10% FCS, 4 hours, 5 µm filter), the “ED50 for inhibition of MCP-1 induced migration” value was “about 4 µM”. Besides, the “binding to parental and chemokine receptor expressing cell lines (in words)” value in series [5] was “No detectable binding”.
